As a reminder, the mortality is the share of the test organisms that died.

Results on one compound are retold here after patent US20230058623A1, “NOVEL HETEROARYL-TRIAZOLE COMPOUNDS AS PESTICIDES” (Bayer Aktiengesellschaft, priority 2019, published 2023).

The subject of the experiment is adult Blattella germanica strain PAULINIA
As to the kind of experiment: whole plant or invertebrate. In kind it is in vivo. The following applies: read-out: efficacy (mortality). As for the experimental part: Blattella germanica Test (BLTTGE Surface Treatment & Contact Assay)
Solvent: Aceton+2000 ppm rapeseed oil methyl ester (RME) In order to produce a sufficient, active ingredient containing solution it is necessary to solve the test compound in the solvent-mix (acetone at 2 mg/ml/RME 2000 ppm). This solution is pipetted onto a glazed tile and after evaporation of the acetone, adult animals of the species Blattella germanica strain PAULINIA are placed onto the dried surface. The exposure time is 30 minutes.
Mortality in percent (%) is determined 24 hours after contact of the insects to the treated surface. 100% mortality means that all tested insects are dead, whereas 0% means that no insect died.

Regarding `Cc1nc([C@H](C)NC(=O)c2cc(C(F)(F)F)cc(C(F)(F)F)c2)n(-c2ccc(C(=O)N3CCOCC3)cn2)n1` [Example I-9, N-[(1S)-1-{3-methyl-1-[5-(morpholin-4-ylcarbonyl)pyridin-2-yl]-1H-1,2,4-triazol-5-yl}ethyl]-3,5-bis(trifluoromethyl)benzamide], the mortality at 20 mg/m2 lay within 80 to 100%.
